Marks after values point to notes of the source that are not given here. Where no end group is shown, it is not given here.
What was measured:
[1] = molecular target: T1, G-Actin from rabbit muscle (Oryctolagus cuniculus, UniProt P68135); experiment: ELISA actin binding assay (solid-phase, immobilized actin); conditions: immobilized G-actin 500 ng/well
T1 construct: G-Actin from rabbit muscle; purchased Sigma-Aldrich, St Louis, Mo; host or cells: rabbit muscle (tissue-derived)
Protocol: Peptides corresponding to a variety of amino acid sequences in the region of human RNASET2 comprising helix 5 and helix 6 were synthesized and assayed for actin binding in an ELISA actin binding assay.
Solid-phase ELISA for RNASET2 peptide binding to immobilized actin was performed as modified from Mejean 1987 (Biochem. J. 244: 571-577) and Mejean 1992 (Eur. J Biochem. 209: 555-562). All steps were conducted at 37° C. Immuno-96 Microwell™ solid plates (Thermo Fisher Scientific, MA) coated with 500 ng/well of G-Actin from rabbit muscle (Sigma-Aldrich, St Louis, Mo.) in 100 ul of 0.05 M carbonate buffer, pH 9.5 (Sigma-Aldrich, Mo), incubated for 1 h and washed with 250 ul/well Tris Buffered Saline (TBS) (Sigma-Aldrich). The wells were blocked with 3% bovine serum albumin (BSA, Sigma-Aldrich) in 200 ul/well TBS for another 1 hour and washed with 250 ul/well TBS. The candidate peptides are then added at various concentrations (for example, serial dilutions giving 500, 250 or 125 ng/well) in 100 ul/well Tris Buffered Saline (TBS), incubated for 1 hour and washed 3 times with 250 ul/well TBS containing 0.05% Tween®20 (TBST, Sigma-Aldrich). Anti-T2 RNase (rabbit anti-rhtrRNASET2, Anilab, Israel, whole serum or antiserum) was then added, incubated for 1 hour and the plates washed 3 times with 250 ul/well TBST. Labeled second antibody [peroxidase-conjugated affinity pure goat-anti rabbit IgG (Jackson, Pa.)] was added at a dilution of 1:10:000 in 100 ul/well TBS, incubated for 1 hour and the plates washed twice with 250 ul/well TBST. After an additional wash with 250 ul/well TBS, 1-Step Ultra TMB-ELISA (TMB-3,3′,5,5′ Tetramethylbenzidine) (Thermo-Scientific) was added (100 ul/well) and after 15-25 min of incubation, the reaction was read at A650 using Infinite F50-TECAN ELISA READER (TECAN, Austria). Each assay was performed in triplicates.

[2] = tested on: Super metastatic A375SM cells; experiment: A375SM xenograft tumor model in athymic nude mice; assay type: in vivo, mouse; conditions: for Tumor Weight: excised tumors at end
Protocol: Female Hds-athymic nude mice (Harlan, Rehovot, Israel) were housed in laminar flow cabinets under specific pathogen-free conditions. Experiments were performed on mice at 7-8 weeks of age. The Animals were maintained in facilities approved by the Ethics Committee for Animal Experimentation, The Israeli Ministry of Health.
Subcutaneous tumors were produced by injecting 2.5×10^5 Super metastatic A375SM cells (single-cell suspensions, >95% viability by a trypan blue exclusion test) in 0.2 ml of Hanks' buffered salt solution into the left flank of each mouse. Tumor growth was recorded three times weekly with a caliper and calculated as a×b^2/2 cm^3 (a, long diameter; b, short diameter). Treatments commenced when tumors arrived to about 100 mm^3 volumes, as follows (iv=intravenous; it=intra-tumor, direct injection, q3×6=three times per week for six weeks, […]):
Each group comprised 10 mice. At the end of experiment, tumors were excised, weighed, and prepared for histopathological examination.
Sections from the excised tumors were examined for athological changes, using Hematoxylin-Eosin staining (nuclei stain blue) and FragEL™ TdT DNA Fragmentation Detection stain (Calbiochem, EMD Millipore, MA) for visualizing apoptotic nuclei.

[3] = 2.5 mg/kg intratumoral, three times per week
[4] = 2.5 mg/kg iv, three times per week
[5] = 5 mg/kg iv, three times per week

Sequence | actin binding on ELISA [1] | tumor volume (tumor growth) ([2]; 2.5 mg/kg intra-tumor, three times per week, vs PBS control) | tumor apoptosis (FragEL stain of tumor sections) [2, 3] | tumor vascular structures (H&E sections) [2, 3] | tumor apoptosis (FragEL stain of tumor sections) ([2]; 2.5 mg/kg iv, daily) | tumor vascular structures (H&E sections) ([2]; 2.5 mg/kg iv, daily) | tumor volume (tumor development) ([2]; 2.5 mg/kg iv, daily for six weeks, vs PBS control) | tumor apoptosis (FragEL stain of tumor sections) [2, 4] | tumor vascular structures (H&E sections) [2, 4] | tumor volume (tumor development) ([2]; 2.5 mg/kg iv, three times per week for six weeks, vs PBS control) | Tumor Weight ([2]; 2.5 mg/kg q7x6 iv) | tumor apoptosis (FragEL stain of tumor sections) [2, 5] | tumor vascular structures (H&E sections) [2, 5] | tumor growth ([2]; 5 mg/kg iv, three times per week, vs PBS control) | Tumor Weight ([2]; 5 mg/kg q3x6 iv) | tumor apoptosis (FragEL stain of tumor sections) ([2]; 7.5 mg/kg iv, three times per week) | tumor vascular structures (H&E sections) ([2]; 7.5 mg/kg iv, three times per week, relative to PBS controls) | tumor growth ([2]; 7.5 mg/kg iv, three times per week, vs PBS control) | Tumor Weight ([2]; 7.5 mg/kg q3x6 iv)
ALNSQKKYFGRSLELYRELDLNSVLLKLGIKPSINYYQVADFKDALARVYGVIPKIQ [SEQ ID NO: 60] | strong | – | – | – | – | – | – | – | – | – | – | – | – | – | – | – | – | – | –
KKYFGRSLELYRELDLNSVLLKLGIK [SEQ ID NO: 57, 26-amino acid peptide representing amino acids 108-133 of RNASET2] | strong actin binding | Increasing inhibition of tumor growth | abundant apoptosis | tumor cells can be seen accumulating towards the blood vessels | heightened apoptosis | significant disruption of tumor histology and vascular structures | increased the rate of tumor development | abundant apoptotic cells | visible disruption of the endothelial structure | trend of increasing inhibition of tumor development | 3469 ± 648^a | an increase in apoptotic rate | only partial disruption of the endothelial cell structures | no visible significant effect on tumor growth | 1798 ± 385^b | an increase in apoptotic rate | A small, if any effect | no visible significant effect on tumor growth | 1471 ± 418^b

Source: patent publication US20160340659A1, “ACTIN BINDING PEPTIDES AND COMPOSITIONS COMPRISING SAME FOR INHIBITING ANGIOGENESIS AND TREATING MEDICAL CONDITIONS ASSOCIATED WITH SAME” (YISSUM RESEARCH AND DEVELOPMENT COMPANY OF THE HEBREW …, priority 2014, published 2016)
